The term IC50 denotes the midpoint of a concentration-inhibition curve.

Bounds are passed on as bounds.

For the assay, the target named is Tumor necrosis factor (Homo sapiens, UniProt P01375). Put plainly: Inhibition of TNFalpha (unknown origin) in HEK-Blue-hTLR2 cells assessed as inhibition of TNFalpha-induced NFkappaB activation pretreated for 2 hrs followed by incubation with TNFalpha for 18 hrs by SEAP assay.
Sequence of Tumor necrosis factor (P01375 whole entry): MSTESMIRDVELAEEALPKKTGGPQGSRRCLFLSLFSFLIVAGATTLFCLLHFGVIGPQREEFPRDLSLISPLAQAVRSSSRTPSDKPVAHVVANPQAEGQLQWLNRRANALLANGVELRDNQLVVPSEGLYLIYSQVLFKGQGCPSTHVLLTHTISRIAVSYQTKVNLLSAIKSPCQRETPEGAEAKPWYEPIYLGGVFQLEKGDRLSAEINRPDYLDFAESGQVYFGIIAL
For `CCCCCCCCCCCCCCOCC(CNC(=O)CC[C@H](NC(=O)OCC1c2ccccc2-c2ccccc21)C(=O)O)OCCCCCCCCCCCCCC` (some centres not stated), the half-inhibitory concentration (IC50) was more than 30 µM.

On to `CCCCCCCCCCCCCCOCC(CNC(=O)[C@H](CCCCN)NC(=O)OCC1c2ccccc2-c2ccccc21)OCCCCCCCCCCCCCC` (some centres not stated), for which the concentration for half-maximal inhibition (IC50) is more than 30 µM.

With `CCCCCCCCCCCCCCOCC(CNC(=O)C(CC1CCNCC1)NC(=O)OCC1c2ccccc2-c2ccccc21)OCCCCCCCCCCCCCC` (configuration not stated), the IC50 was more than 30 µM.

`CCCCCCCCCCCCCCOCC(CNC(=O)[C@H]1CCCN1)OCCCCCCCCCCCCCC` (some centres not stated): the IC50 is more than 30 µM.

For the compound `CCCCCCCCCCCCCCOCC(CNC(=O)CCN)OCCCCCCCCCCCCCC` (configuration not stated), the 50% inhibitory concentration (IC50) is more than 30 µM.

Take `CCCCCCCCCCCCCCOCC(CNC(=O)[C@@H](N)CCCCN)OCCCCCCCCCCCCCC` (some centres not stated): the IC50 is more than 30 µM.

Regarding `CCCCCCCCCCCCCCOCC(CNC(=O)[C@H](CCCCN)NC(C)=O)OCCCCCCCCCCCCCC` (some centres not stated), the IC50 is more than 30 µM.

Regarding `CCCCCCCCCCCCCCOCC(CNC(=O)CCCCCN)OCCCCCCCCCCCCCC` (configuration not stated), the IC50 is more than 30 µM.

Regarding `CCCCCCCCCCCCCCOCC(CNC(=O)[C@H]1CC[C@H](N)CC1)OCCCCCCCCCCCCCC` (some centres not stated), the concentration for half-maximal inhibition (IC50) is more than 30 µM.

As for `CCCCCCCCCCCCCCOCC(CNC(=O)[C@@H](CCCCN)NC(=O)OCc1ccccc1)OCCCCCCCCCCCCCC` (some centres not stated), the IC50 was more than 30 µM.

For the compound `CCCCCCCCCCCCCCOCC(CNC(=O)C1(NC(=O)OCc2ccccc2)CCNCC1)OCCCCCCCCCCCCCC` (configuration not stated), the concentration for half-maximal inhibition (IC50) was more than 30 µM.

In the case of `CCCCCCCCCCCCCCOCC(CNC(=O)[C@H](CCCCN)NCc1ccc(F)cc1)OCCCCCCCCCCCCCC` (some centres not stated), the IC50 is more than 30 µM.

With `CCCCCCCCCCCCCCOCC(CNC(=O)[C@H](CCCCN)NCc1ccc(-c2ccccc2)cc1)OCCCCCCCCCCCCCC` (some centres not stated), the IC50 was more than 30 µM.

Take `CCCCCCCCCCCCCCOCC(CNC(=O)[C@@H](CCCCN)NCc1ccccc1)OCCCCCCCCCCCCCC` (some centres not stated): the IC50 is more than 30 µM.

For `CCCCCCCCCCCCCCOCC(CNC(=O)[C@H](CCCCN)NCc1ccccc1)OCCCCCCCCCCCCCC` (some centres not stated), the concentration for half-maximal inhibition (IC50) is more than 30 µM.

In the case of `CCCCCCCCCCCCCCOCC(CNC(=O)c1cccc(N2CCNCC2)c1)OCCCCCCCCCCCCCC` (configuration not stated), the IC50 is more than 30 µM.

In the case of `CCCCCCCCCCCCCCOCC(CNC(=O)c1cccc(C2CCNCC2)c1)OCCCCCCCCCCCCCC` (configuration not stated), the IC50 is more than 30 µM.

The values above are taken from BindingDB's records for doi:10.1016/j.bmcl.2021.127861 (Neuropore Therapies, 2021).
